Experimental findings from BindingDB's records for patent US20240209019 (Ardelyx, 2024) are described below.

This test addresses T1, 11-beta-hydroxysteroid dehydrogenase type 2 (Homo sapiens, UniProt P80365).
T1 sequence (P80365 whole entry): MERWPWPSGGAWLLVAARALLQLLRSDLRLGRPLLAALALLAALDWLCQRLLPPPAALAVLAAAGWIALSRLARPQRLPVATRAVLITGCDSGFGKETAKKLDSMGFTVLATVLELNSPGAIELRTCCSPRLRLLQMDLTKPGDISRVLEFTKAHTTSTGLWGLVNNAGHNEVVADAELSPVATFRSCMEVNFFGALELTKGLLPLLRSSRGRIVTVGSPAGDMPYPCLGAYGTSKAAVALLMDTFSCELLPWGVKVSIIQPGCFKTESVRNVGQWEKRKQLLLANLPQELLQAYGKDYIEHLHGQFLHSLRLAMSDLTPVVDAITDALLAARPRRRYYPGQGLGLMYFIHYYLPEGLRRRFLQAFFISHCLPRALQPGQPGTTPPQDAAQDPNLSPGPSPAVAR
The test is described as follows: HSD2 Activity. The procedure:
Compounds were diluted in DMSO and serial dilutions prepared by titrating in DMSO. Compounds were then diluted into DMEM/F12. Transwell plates containing descending colon cultures were washed twice with DMEM/F12 and compound was added to the apical compartment. Cells were incubated with test compound for 30 minutes at 37° C., 5% CO2 to equilibrate across the cell membrane. A second compound plate was prepared in which the serially diluted compounds in DMSO were diluted into DMEM/F12 containing 40 nM cortisol. Following the 30 minute pre-incubation step, the apical media was aspirated and compounds diluted in DMEM/F12 with 40 nM cortisol were added to the apical side of the transwell. The plate was then incubated for four hours at 37° C., 5% CO2. Cortisol levels were measured using a cortisol HTRF assay kit as described by the manufacturer (Cisbio).

Some results are limits rather than exact numbers.

Broadly, the IC50 is the midpoint of a concentration-inhibition curve. Read a low IC50 as inhibition by little substance. `CCCOCCOCCOCCOC(=O)O[C@H]1CC[C@@]2(C)[C@@H](CC[C@]3(C)[C@@H]2C(=O)C=C2[C@@H]4C[C@@](C)(C(=O)O)CC[C@]4(C)CC[C@]23C)[C@]1(C)C(=O)O` [US20240209019, Compound noid16]: the 50% inhibitory concentration (IC50) was > 10 µM.
